Laboratory results published in patent publication US8455510B2.
Entries after “also recorded” stand apart in the source; their conditions may differ. Read-outs that look alike come from different tables or passages of the source.

Legend:
[1] = Immunosuppressive activity assay: cytotoxicity; type: cell-based
T Cells = experiment: Immunosuppressive activity assay: T cells inhibitory activity; type: cell-based; conditions: T-cell; Table 10
HL-60 cells = experiment: SRB growth inhibition, HL-60 cells; type: cell-based, human; conditions: SRB method, 72 hours, different concentrations, FIG. 1
Protocol: (§1) After Rh30 cells were treated by the compound at different concentrations, the cell survival rate was detected by SRB method.
(§2) The above various kinds of tumor cells in logarithmic growth phase were inoculated on a 96-well plate with 90 μl per well, and allowed to attach for 24 hours, followed by the addition of the compound with 10 μl per well. For each concentration, the test was carried out in triplicate wells, and included a control well containing the aqueous medium of normal saline at the corresponding concentration and a blank well without cells for zeroing. The tumor cells were cultured for 72 hours at 37° C. and 5% CO2, and then the culture medium was removed. The cells were fixed with cold 10% TCA (trichloroacetic acid) at 4° C. for 1 hour, then washed with distilled water for 5 times, and dried at room temperature, followed by addition of a SRB (Sigma) solution (4 mg/ml) in 1% glacial acetic acid at 100 μl per well. The cells were stained at room temperature for 15 min, and the supernatant was removed. The plate was washed by 1% acetic acid for 5 times and dried at room temperature. Finally, Tris-solution was added at 150 μl per well, and the A value was measured at a wavelength of 520 nm on an ELISA Reader.

FKBP-12 protein = biological target: T1, FKBP-12 protein (Homo sapiens, UniProt P62942); experiment: SPR (surface plasma resonance) binding with FKBP-12
T1 construct: purchased sigma Co
T1 sequence (P62942 whole entry, species assumed): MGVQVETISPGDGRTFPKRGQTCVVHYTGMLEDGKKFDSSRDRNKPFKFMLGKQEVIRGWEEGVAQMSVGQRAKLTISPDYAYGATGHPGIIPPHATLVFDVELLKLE
Protocol: (1) FKBP-12 protein was purchased from sigma Co.
(2) HBS-EP buffer solution (10 mM Hepes, 150 mM NaCl, 3.4 mM EDTA, 0.005% (v/v) surfactant P20, pH 7.4)
(3) Activating reagents EDC and NHS, and blocking reagents Ethanolamine, etc., were purchased from BIACORE AB Co. (Uppsala, Sweden).
(4) BIAcore 3000 and CM5 chip were purchased from BIACORE AB Co. (Uppsala, Sweden).
(2) […] was coupled to the FC2 channel on CM5 chip by using the Wizard for amino-coupling in Biacore 3000 controlling soft. 3.3 g/L of FKBP-12 protein was diluted with 10 mM NaAC (pH 4.6) to 66 μg/ml. The surface of the chip was washed by injecting a mixture of 0.1M1-(3-dimethylaminopropyl)-3-ethylcarbodiimide hydrochloride (EDCI) and 0.1M N-hydroxysuccinimide (NHS) (1:1) at a flow rate of 20 μL/min for 7 min. After that, the protein solution was injected, and then a 1M cholamine (pH 8.5) solution was fed for 7 min to block the activated surface of the chip. Preliminary screening and pharmacokinetic tests on the compounds
The binding abilities of small molecular compounds with FKBP-12 protein were evaluated by SPR (surface plasma resonance). The stock solution of the compound was 10 mM, and was diluted by HBS-EP buffer solution at given ratios. Pharmacokinetic tests were carried out by the Wizard for kinetic analysis in Biacore 3000 controlling soft. The resulted data were fitted by 1:1 Langmuir binding model or stability model in Biacore 3000 analytical soft to obtain the exact kinetic and thermodynamic constants.

CAKI-1 cells = experiment: SRB growth inhibition, CAKI-1 cells; type: cell-based, human; conditions: SRB method, 72 hours, different concentrations, FIG. 1
Protocol: as §1, §2

PC-3 cells = experiment: SRB growth inhibition, PC-3 cells; type: cell-based, human; conditions: SRB method, 72 hours, different concentrations, FIG. 1
Protocol: as §1, §2

[2] = test system: phosphorylation levels of p70S6K and 4E-BP1; experiment: Western blotting of mTOR downstream substrate phosphorylation in tumor cells; type: cell-based, human; conditions: Rh30, PC-3, MCF-7 and CAKI-1 cells, 1 hour treatment, IGF stimulation, FIG. 2
Protocol: Cells were inoculated on a 12-well plate with given densities and allowed to attach overnight. Then the medium was changed to a serum-free one. After starved for 24 hours, the cells were treated with the compound at corresponding concentrations for 1 hour, and then stimulated by IGF for 10 min. The cells were collected, and the phosphorylation levels of p70S6K and 4E-BP1 in the cells were measured by using Western blotting.

MCF-7 cells = experiment: SRB growth inhibition, MCF-7 cells; type: cell-based, human; conditions: SRB method, 72 hours, different concentrations, FIG. 1
Protocol: as §1, §2

[3] = test system: human rhabdomyosarcoma RH-30 xenograft; experiment: RH-30 xenograft on nude mice; conditions: for TV (mm^3) d0: baseline;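 on all read-outs here: male BALB/cA nude mice with subcutaneous RH-30 tumors, oral dosing versus solvent-fed controls, caliper tumor volume, RTV relative to grouping day, T/C as treated RTV over control RTV ×100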
From the text: Animals: BALB/cA nude mice, male, 40-45 days old, body weight: 21±2 g, provided by Shanghai Institute of Materia Medica, Chinese Academy of Sciences. License No.: SCXK (Shanghai) 2004-0002. Animal number in each group: 6 in negative control group, and 6 in administration group.
The amount of inoculated cells was 5×10^6. After the xenograft was formed by inoculation, it was used after passed for 3 generations in nude mice.

Rh30 cells = experiment: SRB growth inhibition, Rh30 cells; type: cell-based, human; conditions: SRB method, 72 hours, different concentrations, FIG. 1
Protocol: as §1, §2

[4] = test system: human prostate cancer PC-3 xenograft; experiment: PC-3 xenograft on nude mice; conditions: 1-5 × 3.5 w; for TV (mm3) d0: baseline
[5] = Table 2, 5 mg/kg p.o, 1-5 × 3 w
[6] = Table 2, 10 mg/kg p.o, 1-5 × 3 w

Structure (SMILES): CO[C@H]1CC2CC[C@@H](C)[C@@](O)(O2)C(=O)C(=O)N2CCCCC2C(=O)O[C@H]([C@H](C)C[C@@H]2CC[C@@H](OC(=O)OCC(O)CO)[C@H](OC)C2)CC(=O)[C@H](C)/C=C(\C)[C@@H](OC(=O)OCC(O)CO)[C@@H](OC)C(=O)[C@H](C)C[C@H](C)/C=C/C=C/C=C/1C (stereo partly shown) [Y50]
- Safety Index CC50/IC50 ([1]; Table 10): >10.9
- CC50 ([1]; Table 10, value beyond the >100 μM bound, read-out: Cytotoxicity CC50, value in brackets): 7590 µM
- CC50 ([1]; Table 10, read-out: Cytotoxicity CC50): > 100 µM
- IC50 (T Cells): 9.1 µM
- inhibitory effects on the growth of HL-60 cells (HL-60 cells): comparable to those of rapamycin
- binding with FKBP12 (FKBP-12 protein): concentration-dependently bind
- Kd (FKBP-12 protein; FKBP12): 0.00026 µM
- koff (FKBP-12 protein; FKBP12): 0.14 × 10^−3 S^−1
- kon (FKBP-12 protein; FKBP12): 5.24 × 10^5 M^−1S^−1
- R^U (Response Unit) compared with rapamycin (FKBP-12 protein; at the same concentration): higher
- concentration to reach the saturation state for the binding with FKBP12 (FKBP-12 protein; compared with rapamycin): lower than that for rapamycin
- inhibitory effects on the growth of CAKI-1 cells (CAKI-1 cells): comparable to those of rapamycin
- inhibitory effects on the growth of PC-3 cells (PC-3 cells): comparable to those of rapamycin
- inhibition of mTOR-catalyzed phosphorylation of p70S6K and 4E-BP1 [2]: concentration-dependently suppress; also recorded: comparable inhibitory effects to those of rapamycin
- inhibitory effects on the growth of MCF-7 cells (MCF-7 cells): comparable to those of rapamycin
- Body Weight (g) end [3, 5]: 25.8 g
- Body Weight (g) start [3, 5]: 22.2 g
- RTV [3, 5]: 2.9 ± 0.5
- T/C (%) [3, 5]: 32.5%
- TV (mm^3) d21 [3, 5]: 380 ± 146 mm^3
- TV (mm^3) d0 [3, 5]: 132 ± 47 mm^3
- Body Weight (g) end [3, 6]: 26.0 g
- Body Weight (g) start [3, 6]: 23.0 g
- RTV [3, 6]: 3.5 ± 1.1
- T/C (%) [3, 6]: 32.9%
- TV (mm^3) d21 [3, 6]: 415 ± 71 mm^3
- TV (mm^3) d0 [3, 6]: 130 ± 50 mm^3
- Body Weight (g) end ([3]; Table 4, 5 mg/kg po, 1-5/2 w): 21.5 g
- Body Weight (g) start ([3]; Table 4, 5 mg/kg po, 1-5/2 w): 20.0 g
- RTV ([3]; Table 4, 5 mg/kg po, 1-5/2 w): 2.0 ± 0.5
- T/C (%) ([3]; Table 4, 5 mg/kg po, 1-5/2 w): 46.6%
- TV (mm^3) d14 ([3]; Table 4, 5 mg/kg po, 1-5/2 w): 323 ± 124 mm^3
- TV (mm^3) d0 ([3]; Table 4, 5 mg/kg po, 1-5/2 w): 160 ± 47 mm^3
- inhibitory effects on the growth of Rh30 cells (Rh30 cells): comparable to those of rapamycin
- Body Weight (g) end ([4]; Table 3, 2.5 mg/kg p.o): 17.7 g
- Body Weight (g) start ([4]; Table 3, 2.5 mg/kg p.o): 19.7 g
- RTV ([4]; Table 3, 2.5 mg/kg p.o): 2.6 ± 1.1
- T/C (%) ([4]; Table 3, 2.5 mg/kg p.o): 40.2%
- TV (mm3) d21 ([4]; Table 3, 2.5 mg/kg p.o): 273 ± 163 mm3
- TV (mm3) d0 ([4]; Table 3, 2.5 mg/kg p.o): 103 ± 35 mm3
- Body Weight (g) end ([4]; Table 3, 5 mg/kg p.o): 22.3 g
- Body Weight (g) start ([4]; Table 3, 5 mg/kg p.o): 22.7 g
- RTV ([4]; Table 3, 5 mg/kg p.o): 0.65 ± 0.4
- T/C (%) ([4]; Table 3, 5 mg/kg p.o): 10.0%
- TV (mm3) d21 ([4]; Table 3, 5 mg/kg p.o): 70 ± 59 mm3
- TV (mm3) d0 ([4]; Table 3, 5 mg/kg p.o): 98 ± 42 mm3
